This passage reports IC50 results from ChEMBL document CHEMBL5725949, “Pyrazolopyridine derivatives and their use in therapy” (2018).

The nature of this assay: Antitrypanosomal Activity Assay: Antitrypanosomal activity was tested on T. brucei brucei bloodstream from parasites (strain¿Lister 427, VATMITat 1.2). Stock solutions of compounds (50 mM) were prepared in DMSO. Two fold serial dilutions of each compound (10 wells in each row) were prepared in 96 well plates in HMI111 medium (100 μl/well; quadruplicates; cf. also Hirumi et al., J. Parasitol. 75 (1989), 985-989). One well without compound, and one well with media alone were included in each row. Parasites grown in HMI11 were inoculated (100 μl of 4×10^4/ml) in all wells (except the well with ¿media alone¿) giving a final concentration of parasites of 2×10^4/ml. The plates were incubated for 66 hours at 37° C. in the incubator with 5% CO2. 20 μl resazurin (Sigma, 0.125 mg/ml in Hanks Balanced Salt Solution) was added to all wells and the plate was further incubated for 6 hours. Change in color of resazurin (blue to pink) by living cells was measured with a 96 well plate reader (excitation at 530 nm, emission at 585 nm, filter cut-off: 570 nm). Percent inhibition values were calculated by setting the well without compound to ¿0% inhibition¿.
Turning to `O=C(NCc1ccccc1)c1nn(CCO)c2c1CN(Cc1ccc3c(c1)OC=CO3)CC2`, the IC50 is 23.3 µM.
Turning to `O=C(NCc1cccc2ccccc12)c1nn(CCO)c2c1CN(Cc1ccc(-c3ccccc3)cc1)CC2`, the IC50 was 0.88 µM.
As for `O=C(NCc1cccc2ccccc12)c1nn(CCO)c2c1CN(Cc1cccc3cc[nH]c13)CC2`, the IC50 is 4.64 µM.
Consider `COc1ccc(CN2CCc3c(c(C(=O)NCc4cccc5ccccc45)nn3-c3ccccc3)C2)c2ccccc12`, for which the IC50 was 0.24 µM.
In the case of `COc1ccc(CN2CCc3c(c(C(=O)NCc4cccc5ccccc45)nn3C3CCC3)C2)c2ccccc12` it was 2 µM; in that of `O=C(NCc1ccccc1)c1nn(-c2ccccc2)c2c1CN(Cc1c[nH]c3ccccc13)CC2`, 2.27 µM.
To `O=C(NCc1cccc2ccccc12)c1nn(CCO)c2c1CN(CCc1ccccc1)CC2` belongs 27 µM; to `O=C(c1nn(Cc2ccccn2)c2c1CN(Cc1ccccc1)CC2)N1CCc2ccccc2C1`, 9.47 µM; to `CC(NC(=O)c1nn(CCO)c2c1CN(C(=O)c1ncc3sccn13)CC2)c1ccccc1` (stereo not drawn), 50.5 µM.
In the case of `O=C(NCc1ccccc1)c1nn(CCO)c2c1CN(CC1=CC(=O)C3C=C(Cl)C=CC3O1)CC2` (stereo not drawn) it was 35.6 µM; in that of `COc1ccc(CN2CCc3c(c(C(=O)NCc4cccc5ccccc45)nn3CCN3CCOCC3)C2)c2ccccc12`, 0.99 µM.
With `COc1ccc2cc(CN3CCc4c(c(C(=O)NCc5cccc6ccccc56)nn4CCO)C3)ccc2c1`, the IC50 is 18 µM.
Take `CC(NC(=O)c1nn(CCO)c2c1CN(Cc1cccc3c1OCO3)CC2)c1ccccc1` (stereo not drawn): the IC50 is 17.6 µM.
Take `COc1ccc(CN2CCc3c(c(C(=O)NCc4cccc5ccccc45)nn3C3CCCC3)C2)c2ccccc12`: the 50% inhibitory concentration (IC50) was 1.22 µM.
With `O=C(NCc1ccccc1)c1nn(CCO)c2c1CN(Cc1cccn1-c1ccccn1)CC2`, the IC50 was 10.4 µM.
In the case of `COc1ccc(CN2CCc3c(c(C(=O)NCc4cccc5ccccc45)nn3CCN)C2)c2c1CCCC2` it was 0.57 µM; in that of `COc1ccc(CN2CCc3c(c(C(=O)NCc4cccc5cccnc45)nn3CCO)C2)c2ccccc12`, 2.96 µM; in that of `O=C(NCc1ccccc1)c1nn(CCO)c2c1CN(Cc1cnn(-c3ccccc3)c1)CC2`, 12.7 µM.
For `CC(NC(=O)c1nn(CCO)c2c1CN(Cc1ccc3ccoc3c1)CC2)c1ccccc1` (stereo not drawn), the IC50 is 16.2 µM.
In the case of `NCCn1nc(C(=O)NCc2cccc3ccccc23)c2c1CCN(Cc1ccc(Cl)c(Cl)c1)C2` it was 1.27 µM.
With `O=C(NCc1cccc2ccccc12)c1nn(CCO)c2c1CN(Cc1cccc3c1OCO3)CC2`, the IC50 is 15.9 µM.
To `O=C(NCc1cccc2ccccc12)c1nn(CCO)c2c1CN(Cc1ccc(C(F)(F)F)cc1)CC2` belongs 2.99 µM; to `Cn1nc(C(=O)NCc2ccccc2)c2c1CCN(Cc1c[nH]c3cc(OCc4ccccc4)ccc13)C2`, 1.7 µM.
In the case of `CCCc1ccc(CN2CCc3c(c(C(=O)NCc4cccc5ccccc45)nn3CCO)C2)cc1` it was 4.35 µM.
To `NCCn1nc(C(=O)NCc2cccc3ccccc23)c2c1CCN(Cc1ccc(Cl)cc1)C2` belongs 0.98 µM.
As to `O=C(NCc1ccccc1)c1nn(CCO)c2c1CN(Cc1cc3ccccc3c3ccccc13)CC2`, the IC50 was 3.36 µM.
`CCc1ccc(CN2CCc3c(c(C(=O)NCc4ccccc4)nn3CCO)C2)cc1`: the IC50 was 13.6 µM.
To `O=C(NCc1ccccc1)c1nn(CCO)c2c1CN(CC(c1ccccc1)c1ccccc1)CC2` belongs 5.32 µM; to `O=C(NCc1ccccc1)c1nn(CCO)c2c1CN(Cc1ccc(OC(F)(F)F)cc1)CC2`, 12.5 µM.
In the case of `Cc1nc2sccn2c1CN1CCc2c(c(C(=O)NCc3ccccc3)nn2CCO)C1`, the IC50 was 27.2 µM.
With `COc1ccc2c(CN3CCc4c(c(C(=O)NCc5cccc6ccccc56)nn4CCO)C3)c[nH]c2c1`, the IC50 is 2.5 µM.
As for `COc1ccc(CN2CCc3c(c(C(=O)NCc4cc(F)cc5ccccc45)nn3CCO)C2)c2ccccc12`, the IC50 was 11.1 µM.
In the case of `O=C(NCc1ccccc1)c1nn(CCO)c2c1CN(Cc1cccc(OC(F)F)c1)CC2` it was 19.7 µM; in that of `CC(=O)c1ccc(CN2CCc3c(c(C(=O)NCc4ccccc4)nn3CCO)C2)cc1`, 22.4 µM; in that of `COc1ccc(CN2CCc3nn(CCO)c(C(=O)NCc4cccc5ccccc45)c3C2)c2ccccc12`, 23.9 µM.
To `COc1ccc(CN2CCc3c(c(C(=O)NCc4cccc5ccccc45)nn3-c3cnccn3)C2)c2ccccc12` belongs 2.59 µM.
In the case of `COc1ccc(CN2CCc3c(c(C(=O)NCc4cccc(C)c4)nn3CCO)C2)c2ccccc12` it was 7.69 µM; in that of `COc1cc(CN2CCc3c(c(C(=O)NCc4ccccc4)nn3CCO)C2)cc2c1OCO2`, 11 µM.
Consider `O=C(CC1CC1)N1CCc2c(c(C(=O)N3CCc4ccccc4C3)nn2Cc2ccccn2)C1`, for which the IC50 is 55.1 µM.
To `O=C(NCc1cccc2ccccc12)c1nn(CCO)c2c1CN(Cc1cccc3cccnc13)CC2` belongs 6.43 µM; to `O=C(NCc1cccc2ccccc12)c1nn(CCO)c2c1CN(Cc1cccc(-c3ccccc3)c1)CC2`, 1.5 µM; to `Cn1nc(C(=O)NCc2ccccc2)c2c1CCN(Cc1ccc(-c3ccccc3)cc1)C2`, 4.08 µM.
To `CC(NC(=O)c1nn(CCO)c2c1CN(CC1Cc3ccccc3CN1C)CC2)c1ccccc1` (stereo not drawn) belongs 13.5 µM.
Regarding `COc1ccc(CN2CCc3nn4c(c3C2)C(=O)N(Cc2cccc3ccccc23)CC4)c2ccccc12`, the IC50 is 4.28 µM.
To `Cn1nc(C(=O)NCc2cccc3ccccc23)c2c1CCN(Cc1cccc3ccccc13)C2` belongs 4.2 µM; to `COC(=O)c1cccc2c(CN3CCc4c(c(C(=O)NCc5ccccc5)nn4CCO)C3)c[nH]c12`, 13.2 µM; to `Cn1nc(C(=O)NCc2ccc3ccccc3c2)c2c1CCN(Cc1c[nH]c3ccccc13)C2`, 2.62 µM.
To `Cn1nc(C(=O)NCc2ccccc2)c2c1CCN(Cc1cccc(-c3ccccc3)c1)C2` belongs 4.06 µM; to `C=CCn1nc(C(=O)NCc2ccccc2)c2c1CCN(Cc1ccc3ncccc3c1)C2`, 9.57 µM; to `COc1ccc2[nH]c(CN3CCc4c(c(C(=O)NCc5cccc6ccccc56)nn4CCO)C3)cc2c1`, 7 µM.
To `O=C(NCc1ccccc1)c1nn(CCO)c2c1CN(Cc1ccc(-c3ccccc3)cc1)CC2` belongs 5.31 µM.
`O=C(NCc1ccccc1)c1nn(CCO)c2c1CN(Cc1ccccc1C(F)(F)F)CC2`: the IC50 is 57.6 µM.
In the case of `O=C(NCc1cccc2ccccc12)c1nn(CCO)c2c1CN(Cc1c[nH]c3cc(OCc4ccccc4)ccc13)CC2` it was 9.9 µM; in that of `O=C(NCc1cccc2ccccc12)c1nn(CCO)c2c1CN(Cc1ccc(F)c3ccccc13)CC2`, 34 µM.
To `COc1ccc(CN2CCc3c(c(C(=O)NCc4cccc5ccccc45)nn3Cc3ccccc3)C2)c2ccccc12` belongs 3.41 µM.
Take `Cc1ccccc1-c1ccc(CN2CCc3c(c(C(=O)NCc4ccccc4)nn3CCO)C2)cc1`: the half-inhibitory concentration (IC50) was 2.76 µM.
Consider `COc1ccc(CN2CCc3c(c(C(=O)NCc4cccc5ccccc45)nn3CCNC(=N)N)C2)c2ccccc12`, for which the IC50 is 0.22 µM.
To `COc1ccc(CN2CCc3[nH]nc(C(=O)NCc4cccc5ccccc45)c3C2)c2ccccc12` belongs 1.11 µM.
In the case of `COC(=O)c1ccc2c(CN3CCc4c(c(C(=O)NCc5cccc6ccccc56)nn4CCO)C3)c[nH]c2c1` it was 2.7 µM; in that of `COc1ccc(CN2CCc3c(c(C(=O)NCc4cccc5ccccc45)nn3C3CN(C(=O)C(C)(C)C)C3)C2)c2ccccc12`, 1.09 µM.
In the case of `Cn1nc(C(=O)NCc2ccccc2)c2c1CCN(Cc1noc3c1CCCC3)C2` it was 44.8 µM; in that of `COc1ccc(CN2CCc3c(c(C(=O)NCc4cccc5[nH]ccc45)nn3CCO)C2)c2ccccc12`, 1.02 µM; in that of `CC(NC(=O)c1nn(CCO)c2c1CN(Cc1cnn(-c3ccccc3)c1)CC2)c1ccccc1` (stereo not drawn), 14.5 µM.
As to `O=C(NCc1cccc2ccccc12)c1nn(CCO)c2c1CN(Cc1c[nH]c3c(C(=O)O)cccc13)CC2`, the IC50 is 42.6 µM.
As for `O=C(NCc1ccccc1)c1nn(CCO)c2c1CN(Cc1ccccc1-c1ccco1)CC2`, the IC50 is 6.78 µM.
In the case of `Cc1ccc(CCN2CCc3c(c(C(=O)NCc4cccc5ccccc45)nn3CCO)C2)cc1` it was 114 µM.
`C=C(C)C1CC=C(CN2CCc3c(c(C(=O)NCc4ccccc4)nn3CCO)C2)CC1` (stereo not drawn): the IC50 was 16.9 µM.
Take `COc1ccc(CN2CCc3c(c(C(=O)NCc4cccc5ccccc45)nn3CC(O)CN)C2)c2ccccc12` (stereo not drawn): the IC50 is 0.62 µM.
